Measurements as given in ChEMBL document CHEMBL5537170, “Design, Synthesis, and Anti-Osteoporotic Characterization of Arginine N-Glycosylated Teriparatide Analogs via the Silver-catalyzed Solid-Phase Glycosylation Strategy” (J Med Chem, 2024).
*1 amine or outer side, *2 acyl side, *3 side chain or, on linkers, in order; H or OH if unused. Where a SMILES comes first, the peptide text is derived from it. [ ]: non-standard residue; d: D form. X3 = CC(=O)N[C@@H]1[C@@H](O)[C@H](O)[C@@H](CO)O[C@H]1NC(=N)NCCC[C@H](N[*:1])C(=O)[*:2]; X5 = N=C(NCCC[C@H](N[*:1])C(=O)[*:2])N[C@@H]1OC[C@@H](O)[C@H](O)[C@H]1O

Assay: Cytotoxicity against C57BL/6 mouse Pre-Osteoblast cells assessed as cell death upto 5 uM incubated for 4 days by CCK-8 assay
Type: toxicity, cell-based
Settings: 96 h, time 4 day

Row | Structure (SMILES) | Activity
1 | CC[C@H](C)[C@H](NC(=O)[C@H](CCC(=O)O)NC(=O)[C@H](CO)NC(=O)[C@@H](NC(=O)[C@H](CO)NC(C)=O)C(C)C)C(=O)N[C@@H](CCC(N)=O)C(=O)N[C@@H](CC(C)C)C(=O)N[C@@H](CCSC)C(=O)N[C@@H](Cc1cnc[nH]1)C(=O)N[C@@H](CC(N)=O)C(=O)N[C@@H](CC(C)C)C(=O)NCC(=O)N[C@@H](CCCCN)C(=O)N[C@@H](Cc1cnc[nH]1)C(=O)N[C@@H](CC(C)C)C(=O)N[C@@H](CC(N)=O)C(=O)N[C@@H](CO)C(=O)N[C@@H](CCSC)C(=O)N[C@@H](CCC(=O)O)C(=O)N[C@@H](CCCNC(=N)N[C@@H]1O[C@H](CO)[C@@H](O)[C@H]1O)C(=O)N[C@H](C(=O)N[C@@H](CCC(=O)O)C(=O)N[C@@H](Cc1c[nH]c2ccccc12)C(=O)N[C@@H](CC(C)C)C(=O)N[C@@H](CCCNC(=N)N)C(=O)N[C@@H](CCCCN)C(=O)N[C@@H](CCCCN)C(=O)N[C@@H](CC(C)C)C(=O)N[C@@H](CCC(N)=O)C(=O)N[C@@H](CC(=O)O)C(=O)N[C@H](C(=O)N[C@@H](Cc1cnc[nH]1)C(=O)N[C@@H](CC(N)=O)C(=O)N[C@@H](Cc1ccccc1)C(N)=O)C(C)C)C(C)C | Non-Toxic
2 | CC[C@H](C)[C@H](NC(=O)[C@H](CCC(=O)O)NC(=O)[C@H](CO)NC(=O)[C@@H](NC(=O)[C@H](CO)NC(C)=O)C(C)C)C(=O)N[C@@H](CCC(N)=O)C(=O)N[C@@H](CC(C)C)C(=O)N[C@@H](CCSC)C(=O)N[C@@H](Cc1cnc[nH]1)C(=O)N[C@@H](CC(N)=O)C(=O)N[C@@H](CC(C)C)C(=O)NCC(=O)N[C@@H](CCCCN)C(=O)N[C@@H](Cc1cnc[nH]1)C(=O)N[C@@H](CC(C)C)C(=O)N[C@@H](CC(N)=O)C(=O)N[C@@H](CO)C(=O)N[C@@H](CCSC)C(=O)N[C@@H](CCC(=O)O)C(=O)N[C@@H](CCCNC(=N)N)C(=O)N[C@H](C(=O)N[C@@H](CCC(=O)O)C(=O)N[C@@H](Cc1c[nH]c2ccccc12)C(=O)N[C@@H](CC(C)C)C(=O)N[C@@H](CCCNC(=N)N[C@@H]1OC[C@@H](O)[C@H](O)[C@H]1O)C(=O)N[C@@H](CCCCN)C(=O)N[C@@H](CCCCN)C(=O)N[C@@H](CC(C)C)C(=O)N[C@@H](CCC(N)=O)C(=O)N[C@@H](CC(=O)O)C(=O)N[C@H](C(=O)N[C@@H](Cc1cnc[nH]1)C(=O)N[C@@H](CC(N)=O)C(=O)N[C@@H](Cc1ccccc1)C(N)=O)C(C)C)C(C)C | Non-Toxic
3 | CC[C@H](C)[C@H](NC(=O)[C@H](CCC(=O)O)NC(=O)[C@H](CO)NC(=O)[C@@H](NC(=O)[C@H](CO)NC(C)=O)C(C)C)C(=O)N[C@@H](CCC(N)=O)C(=O)N[C@@H](CC(C)C)C(=O)N[C@@H](CCSC)C(=O)N[C@@H](Cc1cnc[nH]1)C(=O)N[C@@H](CC(N)=O)C(=O)N[C@@H](CC(C)C)C(=O)NCC(=O)N[C@@H](CCCCN)C(=O)N[C@@H](Cc1cnc[nH]1)C(=O)N[C@@H](CC(C)C)C(=O)N[C@@H](CC(N)=O)C(=O)N[C@@H](CO)C(=O)N[C@@H](CCSC)C(=O)N[C@@H](CCC(=O)O)C(=O)N[C@@H](CCCNC(=N)N)C(=O)N[C@H](C(=O)N[C@@H](CCC(=O)O)C(=O)N[C@@H](Cc1c[nH]c2ccccc12)C(=O)N[C@@H](CC(C)C)C(=O)N[C@@H](CCCNC(=N)N[C@@H]1O[C@H](CO)[C@@H](O)[C@H](O)[C@H]1O)C(=O)N[C@@H](CCCCN)C(=O)N[C@@H](CCCCN)C(=O)N[C@@H](CC(C)C)C(=O)N[C@@H](CCC(N)=O)C(=O)N[C@@H](CC(=O)O)C(=O)N[C@H](C(=O)N[C@@H](Cc1cnc[nH]1)C(=O)N[C@@H](CC(N)=O)C(=O)N[C@@H](Cc1ccccc1)C(N)=O)C(C)C)C(C)C | Non-Toxic
4 | CC[C@H](C)[C@H](NC(=O)[C@H](CCC(=O)O)NC(=O)[C@H](CO)NC(=O)[C@@H](NC(=O)[C@H](CO)NC(C)=O)C(C)C)C(=O)N[C@@H](CCC(N)=O)C(=O)N[C@@H](CC(C)C)C(=O)N[C@@H](CCSC)C(=O)N[C@@H](Cc1cnc[nH]1)C(=O)N[C@@H](CC(N)=O)C(=O)N[C@@H](CC(C)C)C(=O)NCC(=O)N[C@@H](CCCCN)C(=O)N[C@@H](Cc1cnc[nH]1)C(=O)N[C@@H](CC(C)C)C(=O)N[C@@H](CC(N)=O)C(=O)N[C@@H](CO)C(=O)N[C@@H](CCSC)C(=O)N[C@@H](CCC(=O)O)C(=O)N[C@@H](CCCNC(=N)N[C@@H]1O[C@H](CO)[C@@H](O)[C@H](O)[C@H]1NC(C)=O)C(=O)N[C@H](C(=O)N[C@@H](CCC(=O)O)C(=O)N[C@@H](Cc1c[nH]c2ccccc12)C(=O)N[C@@H](CC(C)C)C(=O)N[C@@H](CCCNC(=N)N[C@@H]1O[C@H](CO)[C@@H](O)[C@H](O)[C@H]1NC(C)=O)C(=O)N[C@@H](CCCCN)C(=O)N[C@@H](CCCCN)C(=O)N[C@@H](CC(C)C)C(=O)N[C@@H](CCC(N)=O)C(=O)N[C@@H](CC(=O)O)C(=O)N[C@H](C(=O)N[C@@H](Cc1cnc[nH]1)C(=O)N[C@@H](CC(N)=O)C(=O)N[C@@H](Cc1ccccc1)C(N)=O)C(C)C)C(C)C (Ac-SVSEIQLMHNLGKHLNSME[X3]VEWL[X3]KKLQDVHNF-NH2) | Non-Toxic
5 | CC[C@H](C)[C@H](NC(=O)[C@H](CCC(=O)O)NC(=O)[C@H](CO)NC(=O)[C@@H](NC(=O)[C@H](CO)NC(C)=O)C(C)C)C(=O)N[C@@H](CCC(N)=O)C(=O)N[C@@H](CC(C)C)C(=O)N[C@@H](CCSC)C(=O)N[C@@H](Cc1cnc[nH]1)C(=O)N[C@@H](CC(N)=O)C(=O)N[C@@H](CC(C)C)C(=O)NCC(=O)N[C@@H](CCCCN)C(=O)N[C@@H](Cc1cnc[nH]1)C(=O)N[C@@H](CC(C)C)C(=O)N[C@@H](CC(N)=O)C(=O)N[C@@H](CO)C(=O)N[C@@H](CCSC)C(=O)N[C@@H](CCC(=O)O)C(=O)N[C@@H](CCCNC(=N)N[C@@H]1O[C@H](CO)[C@@H](O[C@@H]2O[C@H](CO)[C@H](O)[C@H](O)[C@H]2O)[C@H](O)[C@H]1O)C(=O)N[C@H](C(=O)N[C@@H](CCC(=O)O)C(=O)N[C@@H](Cc1c[nH]c2ccccc12)C(=O)N[C@@H](CC(C)C)C(=O)N[C@@H](CCCNC(=N)N)C(=O)N[C@@H](CCCCN)C(=O)N[C@@H](CCCCN)C(=O)N[C@@H](CC(C)C)C(=O)N[C@@H](CCC(N)=O)C(=O)N[C@@H](CC(=O)O)C(=O)N[C@H](C(=O)N[C@@H](Cc1cnc[nH]1)C(=O)N[C@@H](CC(N)=O)C(=O)N[C@@H](Cc1ccccc1)C(N)=O)C(C)C)C(C)C | Non-Toxic
6 | CC[C@H](C)[C@H](NC(=O)[C@H](CCC(=O)O)NC(=O)[C@H](CO)NC(=O)[C@@H](NC(=O)[C@H](CO)NC(C)=O)C(C)C)C(=O)N[C@@H](CCC(N)=O)C(=O)N[C@@H](CC(C)C)C(=O)N[C@@H](CCSC)C(=O)N[C@@H](Cc1cnc[nH]1)C(=O)N[C@@H](CC(N)=O)C(=O)N[C@@H](CC(C)C)C(=O)NCC(=O)N[C@@H](CCCCN)C(=O)N[C@@H](Cc1cnc[nH]1)C(=O)N[C@@H](CC(C)C)C(=O)N[C@@H](CC(N)=O)C(=O)N[C@@H](CO)C(=O)N[C@@H](CCSC)C(=O)N[C@@H](CCC(=O)O)C(=O)N[C@@H](CCCNC(=N)N[C@@H]1O[C@H](CO)[C@@H](O[C@@H]2O[C@H](CO)[C@H](O)[C@H](O)[C@H]2O)[C@H](O)[C@H]1O)C(=O)N[C@H](C(=O)N[C@@H](CCC(=O)O)C(=O)N[C@@H](Cc1c[nH]c2ccccc12)C(=O)N[C@@H](CC(C)C)C(=O)N[C@@H](CCCNC(=N)N[C@@H]1O[C@H](CO)[C@@H](O[C@@H]2O[C@H](CO)[C@H](O)[C@H](O)[C@H]2O)[C@H](O)[C@H]1O)C(=O)N[C@@H](CCCCN)C(=O)N[C@@H](CCCCN)C(=O)N[C@@H](CC(C)C)C(=O)N[C@@H](CCC(N)=O)C(=O)N[C@@H](CC(=O)O)C(=O)N[C@H](C(=O)N[C@@H](Cc1cnc[nH]1)C(=O)N[C@@H](CC(N)=O)C(=O)N[C@@H](Cc1ccccc1)C(N)=O)C(C)C)C(C)C | Non-Toxic
7 | CC[C@H](C)[C@H](NC(=O)[C@H](CCC(=O)O)NC(=O)[C@H](CO)NC(=O)[C@@H](NC(=O)[C@H](CO)NC(C)=O)C(C)C)C(=O)N[C@@H](CCC(N)=O)C(=O)N[C@@H](CC(C)C)C(=O)N[C@@H](CCSC)C(=O)N[C@@H](Cc1cnc[nH]1)C(=O)N[C@@H](CC(N)=O)C(=O)N[C@@H](CC(C)C)C(=O)NCC(=O)N[C@@H](CCCCN)C(=O)N[C@@H](Cc1cnc[nH]1)C(=O)N[C@@H](CC(C)C)C(=O)N[C@@H](CC(N)=O)C(=O)N[C@@H](CO)C(=O)N[C@@H](CCSC)C(=O)N[C@@H](CCC(=O)O)C(=O)N[C@@H](CCCNC(=N)N[C@@H]1OC[C@@H](O)[C@H](O)[C@H]1O)C(=O)N[C@H](C(=O)N[C@@H](CCC(=O)O)C(=O)N[C@@H](Cc1c[nH]c2ccccc12)C(=O)N[C@@H](CC(C)C)C(=O)N[C@@H](CCCNC(=N)N[C@@H]1OC[C@@H](O)[C@H](O)[C@H]1O)C(=O)N[C@@H](CCCCN)C(=O)N[C@@H](CCCCN)C(=O)N[C@@H](CC(C)C)C(=O)N[C@@H](CCC(N)=O)C(=O)N[C@@H](CC(=O)O)C(=O)N[C@H](C(=O)N[C@@H](Cc1cnc[nH]1)C(=O)N[C@@H](CC(N)=O)C(=O)N[C@@H](Cc1ccccc1)C(N)=O)C(C)C)C(C)C (Ac-SVSEIQLMHNLGKHLNSME[X5]VEWL[X5]KKLQDVHNF-NH2) | Non-Toxic
8 | CC[C@H](C)[C@H](NC(=O)[C@H](CCC(=O)O)NC(=O)[C@H](CO)NC(=O)[C@@H](NC(=O)[C@H](CO)NC(C)=O)C(C)C)C(=O)N[C@@H](CCC(N)=O)C(=O)N[C@@H](CC(C)C)C(=O)N[C@@H](CCSC)C(=O)N[C@@H](Cc1cnc[nH]1)C(=O)N[C@@H](CC(N)=O)C(=O)N[C@@H](CC(C)C)C(=O)NCC(=O)N[C@@H](CCCCN)C(=O)N[C@@H](Cc1cnc[nH]1)C(=O)N[C@@H](CC(C)C)C(=O)N[C@@H](CC(N)=O)C(=O)N[C@@H](CO)C(=O)N[C@@H](CCSC)C(=O)N[C@@H](CCC(=O)O)C(=O)N[C@@H](CCCNC(=N)N)C(=O)N[C@H](C(=O)N[C@@H](CCC(=O)O)C(=O)N[C@@H](Cc1c[nH]c2ccccc12)C(=O)N[C@@H](CC(C)C)C(=O)N[C@@H](CCCNC(=N)N[C@@H]1O[C@H](CO)[C@@H](O[C@@H]2O[C@H](CO)[C@H](O)[C@H](O)[C@H]2O)[C@H](O)[C@H]1O)C(=O)N[C@@H](CCCCN)C(=O)N[C@@H](CCCCN)C(=O)N[C@@H](CC(C)C)C(=O)N[C@@H](CCC(N)=O)C(=O)N[C@@H](CC(=O)O)C(=O)N[C@H](C(=O)N[C@@H](Cc1cnc[nH]1)C(=O)N[C@@H](CC(N)=O)C(=O)N[C@@H](Cc1ccccc1)C(N)=O)C(C)C)C(C)C | Non-Toxic
